In PubChem BioAssay AID292 (DTP/NCI, 2004):
“And” between values parts separate entries of the source, which are not always exact repeats. Equal entries are not always repeated. Inconclusive results and toxic doses are left out.

Tested on: B6C3F1 mice, ip Sarcoma M5076, median survival T/C
Experiment: NCI In Vivo Anticancer Drug Screen. Data for tumor model Sarcoma M5076 (intraperitoneal) in B6C3F1 mice
Conditions: endpoint: median survival time, schedule: Q04DX004 (ip), higher = longer survival
Summary of the method: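 Antitumour effect is judged in tumour-bearing mice by comparing survival after compound dosing against vehicle-only animals, reported as T/C.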

[1] = dose: 12.5 mg/kg/injection, vehicle: saline with Tween-80
[2] = dose: 25.0 mg/kg/injection, vehicle: saline with Tween-80
[3] = dose: 50.0 mg/kg/injection, vehicle: saline with Tween-80
[4] = dose: 100.0 mg/kg/injection, vehicle: saline with Tween-80
[5] = dose: 200.0 mg/kg/injection, vehicle: saline with Tween-80
[6] = dose: 400.0 mg/kg/injection, vehicle: saline with Tween-80
[7] = dose: 800.0 mg/kg/injection, vehicle: saline with Tween-80

CC(/C=C/C1OC(=O)C=CC1C)=C\C(C)C/C=C/C(C)=C/C(C)C(=O)C(C)C(O)C(C)C/C(C)=C/C(=O)O (configuration not stated)
T/C (dose: 25.0 micrograms/kg/injection, vehicle: saline + alcohol): 118 % of control
T/C (dose: 50.0 micrograms/kg/injection, vehicle: saline + alcohol): 150 % of control
T/C (dose: 100.0 micrograms/kg/injection, vehicle: saline + alcohol): 123 % of control
T/C (dose: 400.0 micrograms/kg/injection, vehicle: saline + alcohol): 177 % of control

CSC1SCC2C(=O)N(C)C(C(C)C)C(=O)OCC(NC(=O)c3cnc4ccccc4n3)C(=O)NC(C)C(=O)N(C)C1C(=O)N(C)C(C(C)C)C(=O)OCC(NC(=O)c1cnc3ccccc3n1)C(=O)NC(C)C(=O)N2C (configuration not stated)
T/C (dose: 12.5 micrograms/kg/injection, vehicle: saline with Tween-80): 100 % of control
T/C (dose: 25.0 micrograms/kg/injection, vehicle: saline with Tween-80): 104 % of control
T/C (dose: 50.0 micrograms/kg/injection, vehicle: saline with Tween-80): 110 % of control and 111 % of control
T/C (dose: 100.0 micrograms/kg/injection, vehicle: saline with Tween-80): 114 % of control
T/C (dose: 200.0 micrograms/kg/injection, vehicle: saline with Tween-80): 123 % of control

c1ccc2c(c1)[nH]c1c2c(N2CCOCC2)nn2cnnc12
T/C [1]: 92 % of control
T/C [2]: 88 % of control and 96 % of control
T/C [3]: 100 % of control
T/C [4]: 95 % of control
T/C [5]: 87 % of control

O=S1(=O)C(c2ccccc2)=C(O)c2cc3ccccc3nc21
T/C (dose: 31.25 mg/kg/injection, vehicle: saline with Tween-80): 97 % of control
T/C (dose: 62.5 mg/kg/injection, vehicle: saline with Tween-80): 108 % of control
T/C (dose: 125.0 mg/kg/injection, vehicle: saline with Tween-80): 93 % of control
T/C (dose: 250.0 mg/kg/injection, vehicle: saline with Tween-80): 102 % of control

Nc1ncnc2c1c1c(=O)[nH]c(=O)[nH]c1n2C1OC(CO)C(O)C1O (configuration not stated)
T/C (dose: 50.0 mg/kg/injection, vehicle: distilled water + Tween-80): 106 % of control and 115 % of control
T/C (dose: 100.0 mg/kg/injection, vehicle: distilled water + Tween-80): 117 % of control
T/C (dose: 200.0 mg/kg/injection, vehicle: distilled water + Tween-80): 104 % of control and 108 % of control
T/C (dose: 400.0 mg/kg/injection, vehicle: distilled water + Tween-80): 116 % of control

Nc1nc(N)c2c(ccc3c2ccn3Cc2cccc([N+](=O)[O-])c2)n1
T/C (dose: 2.38 mg/kg/injection, vehicle: saline with Tween-80): 98 % of control and 109 % of control
T/C (dose: 4.69 mg/kg/injection, vehicle: saline with Tween-80): 117 % of control
T/C (dose: 4.75 mg/kg/injection, vehicle: saline with Tween-80): 115 % of control
T/C (dose: 9.38 mg/kg/injection, vehicle: saline with Tween-80): 121 % of control
T/C (dose: 9.5 mg/kg/injection, vehicle: saline with Tween-80): 118 % of control
T/C (dose: 38.0 mg/kg/injection, vehicle: saline with Tween-80): 153 % of control and 155 % of control

C/C=C(\C)C(=O)OC1C(C)=C2C(C1OC(=O)CCCCC)C(C)(OC(C)=O)CC(OC(=O)CCC)C1(O)C2OC(=O)C1(C)O (configuration not stated)
T/C (dose: 1.0 mg/kg/injection, vehicle: Klucel (hydroxypropylcellulose) (HPC)): 97 % of control and 101 % of control
T/C (dose: 2.0 mg/kg/injection, vehicle: Klucel (hydroxypropylcellulose) (HPC)): 92 % of control and 101 % of control

Cn1c2ccccc2c2oc(CO)cc(=O)c21
T/C (dose: 37.5 mg/kg/injection, vehicle: Klucel (hydroxypropylcellulose) (HPC)): 92 % of control
T/C (dose: 75.0 mg/kg/injection, vehicle: Klucel (hydroxypropylcellulose) (HPC)): 91 % of control
T/C (dose: 150.0 mg/kg/injection, vehicle: Klucel (hydroxypropylcellulose) (HPC)): 91 % of control
T/C (dose: 300.0 mg/kg/injection, vehicle: Klucel (hydroxypropylcellulose) (HPC)): 87 % of control
T/C (dose: 600.0 mg/kg/injection, vehicle: Klucel (hydroxypropylcellulose) (HPC)): 91 % of control

CCOC(=O)C1=C(Nc2ccc(OC)cc2)C(N)=NC1=N
T/C (dose: 12.5 mg/kg/injection, vehicle: suspension in saline): 102 % of control
T/C (dose: 25.0 mg/kg/injection, vehicle: suspension in saline): 100 % of control
T/C [3]: 101 % of control
T/C (dose: 50.0 mg/kg/injection, vehicle: suspension in saline): 111 % of control
T/C [4]: 99 % of control
T/C (dose: 100.0 mg/kg/injection, vehicle: suspension in saline): 101 % of control
T/C [5]: 102 % of control
T/C (dose: 200.0 mg/kg/injection, vehicle: suspension in saline): 105 % of control
T/C [6]: 106 % of control
T/C [7]: 101 % of control

CC(=O)OCc1cc(=O)n(C)c2c3c4c(cc12)c(C)cc(=O)n4CO3
T/C (dose: 10.0 mg/kg/injection, vehicle: Klucel (hydroxypropylcellulose) (HPC)): 103 % of control
T/C (dose: 20.0 mg/kg/injection, vehicle: Klucel (hydroxypropylcellulose) (HPC)): 112 % of control
T/C (dose: 40.0 mg/kg/injection, vehicle: Klucel (hydroxypropylcellulose) (HPC)): 104 % of control
T/C (dose: 80.0 mg/kg/injection, vehicle: Klucel (hydroxypropylcellulose) (HPC)): 111 % of control

C=CCNc1nc2c(s1)c(C)c(O)c1ccccc12
T/C (dose: 37.5 mg/kg/injection, vehicle: saline with Tween-80): 98 % of control
T/C (dose: 75.0 mg/kg/injection, vehicle: saline with Tween-80): 88 % of control

COc1ncc(Br)cc1C(=O)NCCc1ccc(S(=O)(=O)NC(=O)NC2CCCCC2)cc1
T/C [1]: 100 % of control
T/C [2]: 102 % of control
T/C [3]: 100 % of control

O=c1[nH]c(=O)n(C2CC(O)C(CO)O2)cc1C(F)(F)F (configuration not stated)
T/C [4]: 113 % of control and 114 % of control
T/C [5]: 109 % of control and 113 % of control
T/C [6]: 110 % of control and 112 % of control
T/C [7]: 116 % of control
T/C (dose: 1600.0 mg/kg/injection, vehicle: saline with Tween-80): 116 % of control

COC(=O)NC1C(C)OC(OC2C/C=C(/C)C3C=CC4C(OC5CC(OC6CC(OC7CC(O)C(O)C(C)O7)C(OC7CC(O)C(OC)C(C)O7)C(C)O6)C(O)C(C)O5)C(C)CC(C)C4C3(C)/C(O)=C3\C(=O)OC4(CC(C)C(CO)=CC4/C=C\2C)C3=O)CC1(C)[N+](=O)[O-] (configuration not stated)
T/C (dose: 12.5 mg/kg/injection, vehicle: water): 97 % of control
T/C (dose: 25.0 mg/kg/injection, vehicle: water): 100 % of control
T/C (dose: 50.0 mg/kg/injection, vehicle: water): 94 % of control
T/C (dose: 100.0 mg/kg/injection, vehicle: water): 104 % of control
T/C (dose: 200.0 mg/kg/injection, vehicle: water): 111 % of control

CCCCCCCC(=O)[O][Hg][CH2]C1COC([CH2][Hg][O]C(=O)CCCCCCC)CO1 (configuration not stated)
T/C (dose: 6.25 mg/kg/injection, vehicle: saline with Tween-80): 95 % of control
T/C [1]: 86 % of control
T/C [2]: 86 % of control and 87 % of control
T/C [3]: 87 % of control and 90 % of control
T/C [4]: 87 % of control

c1ccc(-c2nc3cc4c(cc3n3cccc23)oc2ccccc24)cc1
T/C [2]: 90 % of control
T/C [3]: 101 % of control
T/C [6]: 91 % of control

Cn1nnc2c(C(N)=O)ncn2c1=O
T/C (dose: 100.0 mg/kg/injection, vehicle: saline): 156 % of control
T/C (dose: 200.0 mg/kg/injection, vehicle: saline): 170 % of control

CCN(CC)CCOC(=O)c1cc2cc3cc(C(=O)OCCN(CC)CC)c(=O)oc3c(C)c2oc1=O
T/C (dose: 37.5 mg/kg/injection, vehicle: saline): 100 % of control
T/C (dose: 75.0 mg/kg/injection, vehicle: saline): 92 % of control
T/C (dose: 150.0 mg/kg/injection, vehicle: saline): 93 % of control
